Source: patent US8992932B2, “Binder-drug conjugates (ADCs) and use thereof” (Seattle Genetics, Inc., priority 2011, dated 2015)
Several values for one entry are separate records, joined by “and”; a condition that tells them apart may be missing. Identical values can stand only once. Counter-ions that a name gives are not always drawn. Square brackets hold non-standard residues; d marks the D form. Peptide text beside a SMILES is read from it. * marks the point of attachment. X2 = CC(C)[C@@H](C(=O)*)N(C)CCCCCCN1C(=O)CC(SC[C@H](N)C(=O)O)C1=O; X3 = CC(C)[C@@H](C(=O)*)N(C)CCOCCOCCOCCC(=O)NCCCC[C@H](N)C(=O)O; X1 = CC(C)[C@@H](C(=O)*)N(C)CCCCCC(=O)NCCCC[C@H](N)C(=O)O; Dolaproine = CO[C@@H]([C@@H]1CCCN1)[C@@H](C)C(=O)O; Dil = CC[C@H](C)[C@H](NC)[C@@H](CC(=O)O)OC; Oxazinan2yl(1,2) = C1CCN(*)OC1; NMeV = CN[C@H](C(=O)O)C(C)C

test system: tubulin; assay: Fluorescence-based microtubule polymerisation assay (DAPI); assay type: biochemical; conditions: not given
Experimental: Tubulin polymerization was investigated using the “Fluorescence-based Microtubule Polymerisation Assay Kit” from Cytoskeleton (Denver, Colo., USA; order number: BK011). With this assay, GTP is added to unpolymerized tubulin, allowing polymerization to take place spontaneously. The assay is based on the binding of the fluorophore 4′,6-diamidino-2-phenylindole (DAPI) to tubulin. Free and bound DAPI can be differentiated on the basis of different emission spectra.
[…] In addition to the buffer control, paclitaxel, with a polymerization-increasing effect, and vinblastin, with a polymerization inhibiting effect, were run additionally as assay controls. Measurement was carried out using 96-well plates with a half base area. The kinetics of the tubulin polymerization were monitored in a Fluorimeter at 37° C. for 1 hour. The excitation wavelength was 355 nm, and emission was monitored at 460 nm. For the region of linear increase within the first 10 minutes, a calculation was made of the change in fluorescence per minute (AF/min), which represents the polymerization rate of the microtubuli. The potency of the test substances was quantified on the basis of their respective reduction of the polymerization rate.

Structure (SMILES) | Effect on tubulin polymerization (in words)
CC[C@H](C)[C@@H]([C@@H](CC(=O)N1CCC[C@H]1[C@H](OC)[C@@H](C)C(=O)N[C@@H](Cc1ccccc1)C(=O)O)OC)N(C)C(=O)[C@@H](NC(=O)[C@@H](NC)C(C)C)C(C)C [MMAF, monomethylauristatin F, reference compound] (H-[NMeV]V[Dil][Dolaproine]F-OH) | inhibit tubulin polymerization as a function of their concentration

same assay, conditions: toxophore 1 μM; trifluoroacetate

Structure (SMILES) | Tubulin polymerization in the presence of toxophore in [%]. Tubulin polymerization rate at 1 μM MMAF set at 100%
CC[C@H](C)[C@@H]([C@@H](CC(=O)N1CCC[C@H]1[C@H](OC)[C@@H](C)C(=O)N[C@@H](Cc1c[nH]c2ccccc12)C(=O)N1CCCCO1)OC)N(C)C(=O)[C@@H](NC(=O)[C@H](C(C)C)N(C)CCOCCOCCOCCC(=O)NCCCC[C@H](N)C(=O)O)C(C)C [Example 117, N-[(18S)-18-Amino-18-carboxy-12-oxo-3,6,9-trioxa-13-azaoctadec-1-yl]-N-methyl-L-valyl-N-[(3R,4S,5S)-1-{(2S)-2-[(1R,2R)-3-{[(2S)-3-(1H-indol-3-yl)-1-(1,2-oxazinan-2-yl)-1-oxopropan-2-yl]amino}-1-methoxy-2-methyl-3-oxopropyl]pyrrolidin-1-yl}-3-methoxy-5-methyl-1-oxoheptan-4-yl]-N-methyl-L-valinamide trifluoroacetate] (X3-V[Dil][Dolaproine]W-{Oxazinan2yl(1,2)}) | 60% and 78%

test system: Caco-2 cells; assay: Cell permeability flux assay using Caco-2 cells; assay type: in vitro ADME; conditions: basal to apical, 2 hours
Experimental: The cell permeability of a substance can be investigated by means of in vitro testing in a flux assay using Caco-2 cells [M. D. Troutman and D R Thakker, Pharm. Res. 20 (8), 1210-1224 (2003)]. For this purpose, the cells were cultured for 15-16 days on 24-well filter plates. For the determination of permeation, the respective working example was applied in a HEPES buffer to the cells either apically (A) or basally (B) and incubated for 2 hours. After 0 hours and after 2 hours, samples were taken from the cis and trans compartments. The samples were separated by HPLC (Agilent 1200, Boblingen, Germany) using reverse phase columns. The HPLC system was coupled via a Turbo Ion Spray Interface to a Triple Quadropol mass spectrometer API 4000 (Applied Biosystems Applera, Darmstadt, Germany). The permeability was evaluated on the basis of a Papp value, which was calculated using the formula published by Schwab et al. [D. Schwab et al., J. Med. Chem. 46, 1716-1725 (2003)].

Structure (SMILES) | Papp (B-A) [×10⁻⁶ cm/s]
CC[C@H](C)[C@@H]([C@@H](CC(=O)N1CCC[C@H]1[C@H](OC)[C@@H](C)C(=O)N[C@@H](Cc1c[nH]c2ccccc12)C(N)=O)OC)N(C)C(=O)[C@@H](NC(=O)[C@H](C(C)C)N(C)CCCC(=O)NNC(=O)CCCCCN1C(=O)CC(SC[C@H](N)C(=O)O)C1=O)C(C)C (stereo partly drawn) [Example 71, N-(4-{2-[6-(3-{[(2R)-2-Amino-2-carboxyethyl]sulphanyl}-2,5-dioxopyrrolidin-1-yl)hexanoyl]hydrazino}-4-oxobutyl)-N-methyl-L-valyl-N-[(3R,4S,5S)-1-{(2S)-2-[(1R,2R)-3-{[(2S)-1-amino-3-(1H-indol-3-yl)-1-oxopropan-2-yl]amino}-1-methoxy-2-methyl-3-oxopropyl]pyrrolidin-1-yl}-3-methoxy-5-methyl-1-oxoheptan-4-yl]-N-methyl-L-valinamide] | 0.2
CC[C@H](C)[C@@H]([C@@H](CC(=O)N1CCC[C@H]1[C@H](OC)[C@@H](C)C(=O)N[C@@H](Cc1c[nH]c2ccccc12)C(=O)O)OC)N(C)C(=O)[C@@H](NC(=O)[C@H](C(C)C)N(C)CCCC(=O)NNC(=O)CCCCCN1C(=O)CC(SC[C@H](N)C(=O)O)C1=O)C(C)C (stereo partly drawn) [Example 72, N-(4-{2-[6-(3-{[(2R)-2-Amino-2-carboxyethyl]sulphanyl}-2,5-dioxopyrrolidin-1-yl)hexanoyl]hydrazino}-4-oxobutyl)-N-methyl-L-valyl-N-[(3R,4S,5S)-1-{(2S)-2-[(1R,2R)-3-{[(1S)-1-carboxy-2-(1H-indol-3-yl)ethyl]amino}-1-methoxy-2-methyl-3-oxopropyl]pyrrolidin-1-yl}-3-methoxy-5-methyl-1-oxoheptan-4-yl]-N-methyl-L-valinamide] | 0.16
CC[C@H](C)[C@@H]([C@@H](CC(=O)N1CCC[C@H]1[C@H](OC)[C@@H](C)C(=O)N[C@@]1(C(=O)N2CCCCO2)C[C@@H]1c1ccccc1)OC)N(C)C(=O)[C@@H](NC(=O)[C@H](C(C)C)N(C)CCCC(=O)NNC(=O)CCCCCN1C(=O)CC(SC[C@H](N)C(=O)O)C1=O)C(C)C (stereo partly drawn) [Example 73, N-(4-{2-[6-(3-{[(2R)-2-Amino-2-carboxyethyl]sulphanyl}-2,5-dioxopyrrolidin-1-yl)hexanoyl]hydrazino}-4-oxobutyl)-N-methyl-L-valyl-N-[(3R,4S,5S)-3-methoxy-1-{(2S)-2-[(1R,2R)-1-methoxy-2-methyl-3-{[(1S,2R)-1-(1,2-oxazinan-2-ylcarbonyl)-2-phenylcyclopropyl]amino}-3-oxopropyl]pyrrolidin-1-yl}-5-methyl-1-oxoheptan-4-yl]-N-methyl-L-valinamide] | 0.25
CC[C@H](C)[C@@H]([C@@H](CC(=O)N1CCC[C@H]1[C@H](OC)[C@@H](C)C(=O)N[C@@H](Cc1c[nH]c2ccccc12)C(N)=O)OC)N(C)C(=O)[C@@H](NC(=O)[C@H](C(C)C)N(C)CCCCCCN1C(=O)CC(SC[C@H](N)C(=O)O)C1=O)C(C)C (stereo partly drawn) [Example 74, N-[6-(3-{[(2R)-2-Amino-2-carboxyethyl]sulphanyl}-2,5-dioxopyrrolidin-1-yl)hexyl]-N-methyl-L-valyl-N-[(3R,4S,5S)-1-{(2S)-2-[(1R,2R)-3-{[(2S)-1-amino-3-(1H-indol-3-yl)-1-oxopropan-2-yl]amino}-1-methoxy-2-methyl-3-oxopropyl]pyrrolidin-1-yl}-3-methoxy-5-methyl-1-oxoheptan-4-yl]-N-methyl-L-valinamide] (X2-V[Dil][Dolaproine]W-NH2) | 0.5
CC[C@H](C)[C@@H]([C@@H](CC(=O)N1CCC[C@H]1[C@H](OC)[C@@H](C)C(=O)N[C@@H](Cc1c[nH]c2ccccc12)C(=O)NCc1ccccc1)OC)N(C)C(=O)[C@@H](NC(=O)[C@H](C(C)C)N(C)CCCC(=O)NNC(=O)CCCCCN1C(=O)CC(SC[C@H](N)C(=O)O)C1=O)C(C)C (stereo partly drawn) [Example 77, N-(4-{2-[6-(3-{[(2R)-2-Amino-2-carboxyethyl]sulphanyl}-2,5-dioxopyrrolidin-1-yl)hexanoyl]hydrazino}-4-oxobutyl)-N-methyl-L-valyl-N-[(3R,4S,5S)-1-{(2S)-2-[(1R,2R)-3-{[(2S)-1-(benzylamino)-3-(1H-indol-3-yl)-1-oxopropan-2-yl]amino}-1-methoxy-2-methyl-3-oxopropyl]pyrrolidin-1-yl}-3-methoxy-5-methyl-1-oxoheptan-4-yl]-N-methyl-L-valinamide] | 0.7
CC[C@H](C)[C@@H]([C@@H](CC(=O)N1CCC[C@H]1[C@H](OC)[C@@H](C)C(=O)N[C@@H](Cc1c[nH]c2ccccc12)C(=O)N1CCCCO1)OC)N(C)C(=O)[C@@H](NC(=O)[C@H](C(C)C)N(C)CCCCCC(=O)NCCCC[C@H](N)C(=O)O)C(C)C [Example 115, N-(6-{[(55)-5-Amino-5-carboxypentyl]amino}-6-oxohexyl)-N-methyl-L-valyl-N-[(3R,4S,5S)-1-{(2S)-2-[(1R,2R)-3-{[(2S)-3-(1H-indol-3-yl)-1-(1,2-oxazinan-2-yl)-1-oxopropan-2-yl]amino}-1-methoxy-2-methyl-3-oxopropyl]pyrrolidin-1-yl}-3-methoxy-5-methyl-1-oxoheptan-4-yl]-N-methyl-L-valinamide trifluoroacetate] (X1-V[Dil][Dolaproine]W-{Oxazinan2yl(1,2)}) | 0.2
CC[C@H](C)[C@@H]([C@@H](CC(=O)N1CCC[C@H]1[C@H](OC)[C@@H](C)C(=O)N[C@@H](Cc1c[nH]c2ccccc12)C(=O)O)OC)N(C)C(=O)[C@@H](NC(=O)[C@H](C(C)C)N(C)CCCCCC(=O)NCCCC[C@H](N)C(=O)O)C(C)C [Example 116, N-(6-{[(55)-5-Amino-5-carboxypentyl]amino}-6-oxohexyl)-N-methyl-L-valyl-N-[(3R,4S,5S)-1-{(2S)-2-[(1R,2R)-3-{[(1S)-1-carboxy-2-(1H-indol-3-yl)ethyl]amino}-1-methoxy-2-methyl-3-oxopropyl]pyrrolidin-1-yl}-3-methoxy-5-methyl-1-oxoheptan-4-yl]-N-methyl-L-valinamide] (X1-V[Dil][Dolaproine]W-OH) | 0.1
CC[C@H](C)[C@@H]([C@@H](CC(=O)N1CCC[C@H]1[C@H](OC)[C@@H](C)C(=O)N[C@@H](Cc1ccc(O)cc1)C(=O)N1CCCCO1)OC)N(C)C(=O)[C@@H](NC(=O)[C@H](C(C)C)N(C)CCCCCC(=O)NCCCC[C@H](N)C(=O)O)C(C)C [Example 127, N-(6-{[(55)-5-Amino-5-carboxypentyl]amino}-6-oxohexyl)-N-methyl-L-valyl-N-[(3R,4S,5S)-1-{(2S)-2-[(1R,2R)-3-{[(2S)-3-(4-hydroxyphenyl)-1-(1,2-oxazinan-2-yl)-1-oxopropan-2-yl]amino}-1-methoxy-2-methyl-3-oxopropyl]pyrrolidin-1-yl}-3-methoxy-5-methyl-1-oxoheptan-4-yl]-N-methyl-L-valinamide trifluoroacetate] (X1-V[Dil][Dolaproine]Y-{Oxazinan2yl(1,2)}) | 0.15
